Experimental data reported in ChEMBL document CHEMBL3832065, “DailyMed|setid=d976599a-0ee0-4fa4-afe6-bdfbca570afe | OLANZAPINE - olanzapine tablet, film coated|Rebel Distributors Corp”.

What was measured:
Homo sapiens = assay: (§1) Evaluation of pharmacokinetic parameters for Olanzapine after single oral dose of Olanzapine tablet.; type: ADME, organism-based; details: in vivo, po, dosed compound id 18, dosed compound name OLANZAPINE, regimen Single dose, tissue Plasma
[1] = as §1; type: ADME, organism-based; details: human, in vivo, regimen Single dose
[2] = dosed compound id 18, dosed compound name OLANZAPINE, tissue Plasma

Work on `Cc1cc2c(s1)Nc1ccccc1N=C2N1CCN(C)CC1` [OLANZAPINE] yielded a Vd (Homo sapiens) of 1000 L, a Tmax [1, 2] of 6 h and a half-life [1, 2] of 30 h. It also gave a CL/F ([1]; dosed compound id 18, dosed compound name OLANZAPINE, tissue Plasma, read-out: CL(app) (converted)) of 417 mL/min and a dose excreted ([1]; dosed compound id 180, dosed compound name C-14 OLANZAPINE, tissue Urine, read-out: Excretion) of 7%.
